Test results taken from ChEMBL document CHEMBL2407038, “Cyclophilin inhibitors as antiviral agents” (Bioorg Med Chem Lett, 2013).
Square brackets hold non-standard residues; d marks the D form. Peptide text beside a SMILES is read from it. MeBmt = C/C=C/C[C@@H](C)[C@@H](O)[C@H](NC)C(=O)O; NEtVal = CCN[C@H](C(=O)O)C(C)C; NMeL = CN[C@@H](CC(C)C)C(=O)O; NMeV = CN[C@H](C(=O)O)C(C)C; dHiv = CC(C)[C@@H](O)C(=O)O; dNMeA = CN[C@H](C)C(=O)O; Abu = CC[C@H](N)C(=O)O

Assays:
Experiment in all cases: microbe, parasite or virus in culture
[1] = test system: Human immunodeficiency virus 1; conditions: Human immunodeficiency virus 1, 3B, MT4, 96 h
Description: Antiviral activity against HIV1 3B infected in human MT4 cells coinfected with HTLV1 assessed as reduction in virus-induced cytopathogenicity after 4 days by MTT assay

[2] = test system: Human immunodeficiency virus 1; conditions: Human immunodeficiency virus 1, 3B, CEM-SS, 144 h
Description: Antiviral activity against HIV1 3B infected in human CEM-SS cells assessed as reduction in virus-induced cytopathogenicity after 6 days by MTS assay

[3] = test system: Human immunodeficiency virus 1; conditions: Human immunodeficiency virus 1, LAI, CEM-4
Description: Antiviral activity against HIV1 LAI infected in human CEM4 cells assessed as inhibition of viral replication

[4] = test system: Hepatitis C virus; conditions: Huh-7
Description: Antiviral activity against Hepatitis C virus infected in human Huh7ET cells by luciferase reporter gene assay

[5] = test system: Hepatitis C virus; conditions: Huh-7; remark: listed apart in the source
Description: Antiviral activity against Hepatitis C virus infected in human HuH7 cells by luciferase reporter gene assay

[6] = test system: Hepatitis C virus; conditions: Huh-7, 72 h
Description: Antiviral activity against Hepatitis C virus infected in human Huh7ET cells after 72 hrs by luciferase reporter gene assay

[7] = test system: Hepatitis C virus
Description: Antiviral activity against Hepatitis C virus

[8] = test system: Hepatitis C virus; conditions: 16 h
Description: Antiviral activity against Hepatitis C virus after 16 hrs by cell-based assay

[9] = test system: Hepatitis C virus; conditions: genotype 2b
Description: Antiviral activity against Hepatitis C virus genotype 2b infected in human Huh-9-13 cells after overnight incubation by MTT assay

[10] = test system: Hepatitis C virus; conditions: Huh-5-2, 72 h
Description: Antiviral activity against Hepatitis C virus infected in human HuH5.2 cells after 72 hrs by luciferase reporter gene assay

[11] = test system: Human immunodeficiency virus 1; conditions: Human immunodeficiency virus 1, 3B, MT4
Description: Antiviral activity against HIV1 3B infected in human MT4 cells assessed as reduction in virus-induced cytopathogenicity after 5 to 6 days by MTT assay

C/C=C/C[C@@H](C)[C@@H](O)[C@H]1C(=O)N[C@@H](CC)C(=O)N(C)CC(=O)N(C)[C@@H](CC(C)(C)O)C(=O)N[C@@H](C(C)C)C(=O)N(C)[C@@H](CC(C)C)C(=O)N[C@@H](C)C(=O)N[C@H](C)C(=O)N(C)[C@@H](CC(C)C)C(=O)N(C)[C@@H](CC(C)C)C(=O)N(C)[C@@H](C(C)C)C(=O)N1C
EC50 [1]: 279 nM

C/C=C/C[C@@H](C)[C@@H](O)[C@H]1C(=O)N[C@@H](CC)C(=O)N(C)CC(=O)N(C)[C@@H](C(C)C)C(=O)N[C@@H](C(C)C)C(=O)N(C)[C@@H](CC(C)C)C(=O)N[C@@H](C)C(=O)N[C@H](C)C(=O)N(C)[C@@H](CC(C)C)C(=O)N(C)[C@@H](CC(C)C)C(=O)N(C)[C@@H](C(C)C)C(=O)N1C
EC50 [1]: 54 nM

C/C=C/C[C@@H](C)[C@@H](O)[C@H]1C(=O)N[C@@H](CC)C(=O)N(C)C(OC(C)=O)C(=O)N(C)[C@@H](CC(C)C)C(=O)N[C@@H](C(C)C)C(=O)N(C)[C@@H](CC(C)C)C(=O)N[C@@H](C)C(=O)N[C@H](C)C(=O)N(C)[C@@H](CC(C)C)C(=O)N(C)[C@@H](CC(C)C)C(=O)N(C)[C@@H](C(C)C)C(=O)N1C (stereo partly specified)
IC50 [2]: 119 nM

C/C=C/C[C@@H](C)[C@@H](OC(C)=O)[C@H]1C(=O)N[C@@H](CC)C(=O)N(C)C(OC(C)=O)C(=O)N(C)[C@@H](CC(C)C)C(=O)N[C@@H](C(C)C)C(=O)N(C)[C@@H](CC(C)C)C(=O)N[C@@H](C)C(=O)N[C@H](C)C(=O)N(C)[C@@H](CC(C)C)C(=O)N(C)[C@@H](CC(C)C)C(=O)N(C)[C@@H](C(C)C)C(=O)N1C (stereo partly specified)
IC50 [2]: 115 nM

CC[C@@H]1NC(=O)[C@H]([C@H](O)[C@H](C)C/C=C/CO)N(C)C(=O)[C@H](C(C)C)N(C)C(=O)[C@H](CC(C)C)N(C)C(=O)[C@H](CC(C)C)N(C)C(=O)[C@@H](C)NC(=O)[C@H](C)NC(=O)[C@H](CC(C)C)N(C)C(=O)[C@H](C(C)C)NC(=O)[C@H](CC(C)C)N(C)C(=O)CN(C)C1=O
EC50 [1]: 460 nM

C/C=C/C[C@@H](C)[C@@H](O)[C@H]1C(=O)N[C@@H](CC)C(=O)N(C)[C@H](SCCN(CC)CC)C(=O)N(C)[C@@H](CC(C)C)C(=O)N[C@@H](C(C)C)C(=O)N(C)[C@@H](CC(C)C)C(=O)N[C@@H](C)C(=O)N[C@H](C)C(=O)N(C)[C@@H](CC(C)C)C(=O)N(C)[C@@H](CC(C)C)C(=O)N(C)[C@@H](C(C)C)C(=O)N1C
EC50 [3]: 2.5 nM

C/C=C/C[C@@H](C)[C@@H](O)[C@H]1C(=O)N[C@@H](CC)C(=O)N(C)[C@@H](CSCCN2CCOCC2)C(=O)N(C)[C@@H](CC(C)(C)O)C(=O)N[C@@H](C(C)C)C(=O)N(C)[C@@H](CC(C)C)C(=O)N[C@@H](C)C(=O)N[C@H](C)C(=O)N(C)[C@@H](CC(C)C)C(=O)N(C)[C@@H](CC(C)C)C(=O)N(C)[C@@H](C(C)C)C(=O)N1C
EC50 [2]: 94.9 nM

C/C=C/C[C@@H](C)[C@@H](O)[C@H]1C(=O)N[C@@H](CC)C(=O)N(C)[C@H](OC)C(=O)N(C)[C@@H](CC(C)(C)O)C(=O)N[C@@H](C(C)C)C(=O)N(C)[C@@H](CC(C)C)C(=O)N[C@@H](C)C(=O)N[C@H](C)C(=O)N(C)[C@@H](CC(C)C)C(=O)N(C)[C@@H](CC(C)C)C(=O)N(C)[C@@H](C(C)C)C(=O)N1C
EC50 [2]: 60 nM

C/C=C/C[C@@H](C)[C@@H](O)[C@H]1C(=O)N[C@@H](CC)C(=O)N(C)CC(=O)N(C)[C@@H](CC(C)C)C(=O)N[C@@H](C(C)C)C(=O)N(C)[C@@H](CC(C)C)C(=O)N[C@@H](C)C(=O)N[C@H](C)C(=O)N(C)[C@@H](CC(C)(C)O)C(=O)N(C)[C@@H](CC(C)C)C(=O)N(C)[C@@H](C(C)C)C(=O)N1C
EC50 [1]: 255 nM

C/C=C/C[C@@H](C)[C@@H](O)[C@H]1C(=O)N[C@@H](CC)C(=O)N(C)[C@H](SCCCN2CCOCC2)C(=O)N(C)[C@@H](CC(C)(C)O)C(=O)N[C@@H](C(C)C)C(=O)N(C)[C@@H](CC(C)C)C(=O)N[C@@H](C)C(=O)N[C@H](C)C(=O)N(C)[C@@H](CC(C)C)C(=O)N(C)[C@@H](CC(C)C)C(=O)N(C)[C@@H](C(C)C)C(=O)N1C
EC50 [4]: 40 nM

C/C=C/C[C@@H](C)[C@@H](O)[C@H]1C(=O)N[C@@H](CC)C(=O)N(C)[C@@H](CSCCCN2CCOCC2)C(=O)N(C)[C@@H](CC(C)(C)O)C(=O)N[C@@H](C(C)C)C(=O)N(C)[C@@H](CC(C)C)C(=O)N[C@@H](C)C(=O)N[C@H](C)C(=O)N(C)[C@@H](CC(C)C)C(=O)N(C)[C@@H](CC(C)C)C(=O)N(C)[C@@H](C(C)C)C(=O)N1C
EC50 [5]: 20 nM

C/C=C/C[C@@H](C)[C@@H](O)[C@H]1C(=O)N[C@@H](CC)C(=O)N(C)CC(=O)N(C)[C@@H](CC(C)(C)OCc2ccccc2)C(=O)N[C@@H](C(C)C)C(=O)N(C)[C@@H](CC(C)C)C(=O)N[C@@H](C)C(=O)N[C@H](C)C(=O)N(C)[C@@H](CC(C)C)C(=O)N(C)[C@@H](CC(C)C)C(=O)N(C)[C@@H](C(C)C)C(=O)N1C
EC50 [6]: 410 nM

C/C=C/C[C@@H](C)[C@@H](O)[C@H]1C(=O)N[C@@H](CC)C(=O)N[C@H](C)C(=O)N(C)[C@@H](CC(C)C)C(=O)N(C/C=C(\C)CO)[C@@H](C(C)C)C(=O)N(C)[C@@H](CC(C)C)C(=O)N[C@@H](C)C(=O)N[C@H](C)C(=O)N(C)[C@@H](CC(C)C)C(=O)N(C)[C@@H](CC(C)C)C(=O)N(C)[C@@H](C(C)C)C(=O)N1C
EC50 [7]: 50 nM

C/C=C/C[C@@H](C)[C@@H](O)[C@H]1C(=O)N[C@@H]([C@@H](C)O)C(=O)N(C)CC(=O)N(C)[C@@H](CC(C)C)C(=O)N[C@@H](C(C)C)C(=O)N(C)[C@@H](CC(C)C)C(=O)N[C@@H](C)C(=O)N[C@H](C)C(=O)N(C)[C@@H](CC(C)CO)C(=O)N(C)[C@@H](CC(C)C)C(=O)N(C)[C@@H](C(C)C)C(=O)N1C (stereo partly specified)
EC50 [8]: < 3000 nM

C/C=C/C[C@@H](C)[C@@H](O)[C@H]1C(=O)N[C@@H](CC)C(=O)N(C)[C@H](C)C(=O)N(CC)[C@@H](C(C)C)C(=O)N[C@@H](CC(C)C)C(=O)N(C)[C@@H](CC(C)C)C(=O)N[C@@H](C)C(=O)O[C@H](C(C)C)C(=O)N(C)[C@@H](CC(C)C)C(=O)N[C@@H](CC(C)C)C(=O)N(C)[C@@H](C(C)C)C(=O)N1C (cyclo(A[dHiv][NMeL]L[NMeV][MeBmt][Abu][dNMeA][NEtVal]L[NMeL]))
EC50 [9]: 37 nM

C/C=C/C[C@@H](C)[C@@H](O)[C@H]1C(=O)N[C@@H](CC)C(=O)N(C)[C@H](C)C(=O)N(CC)[C@@H](C(C)C)C(=O)N[C@@H](C(C)C)C(=O)N(C)[C@@H](CC(C)C)C(=O)N[C@@H](C)C(=O)N[C@H](C)C(=O)N(C)[C@@H](CC(C)C)C(=O)N(C)[C@@H](CC(C)C)C(=O)N(C)[C@@H](C(C)C)C(=O)N1C [ALISPORIVIR]
EC50 [10]: 25 nM
EC50 [11]: 63 nM

C/C=C/C[C@@H](C)[C@@H](O)[C@H]1C(=O)N[C@@H](CC)C(=O)N(C)CC(=O)N(C)[C@@H](CC(C)C)C(=O)N[C@@H](C(C)C)C(=O)N(C)[C@@H](CC(C)C)C(=O)N[C@@H](C)C(=O)N[C@H](C)C(=O)N(C)[C@@H](CC(C)C)C(=O)N(C)[C@@H](CC(C)C)C(=O)N(C)[C@@H](C(C)C)C(=O)N1C [CYCLOSPORINE]
EC50 [1]: 450 nM
EC50 [7]: 230 nM

C/C=C/C[C@@H](C)[C@@H](O)[C@H]1C(=O)N[C@@H](CC)C(=O)N(C)CC(=O)N(C)[C@@H]([C@@H](C)CC)C(=O)N[C@@H](C(C)C)C(=O)N(C)[C@@H](CC(C)C)C(=O)N[C@@H](C)C(=O)N[C@H](C)C(=O)N(C)[C@@H](CC(C)C)C(=O)N(C)[C@@H](CC(C)C)C(=O)N(C)[C@@H](C(C)C)C(=O)N1C [NIM811]
EC50 [1]: 47 nM

C/C=C/C[C@@H](C)[C@@H](O)[C@H]1C(=O)N[C@@H](CC)C(=O)N(C)[C@H](SCCN(C)C)C(=O)N(C)[C@@H](CC(C)(C)O)C(=O)N[C@@H](C(C)C)C(=O)N(C)[C@@H](CC(C)C)C(=O)N[C@@H](C)C(=O)N[C@H](C)C(=O)N(C)[C@@H](CC(C)C)C(=O)N(C)[C@@H](CC(C)C)C(=O)N(C)[C@@H](C(C)C)C(=O)N1C [SCY 635]
EC50 [3]: 45 nM
